Where two headings read alike, the source gives them in different places. Starred links: 1 amine or outer side, 2 acyl side, 3 side chain; linkers in the order of their positions; H or OH if unused. Non-standard residues stand in square brackets, D forms with d. Residues, ends and D or L forms follow the SMILES beside them. Groups on a side chain read outwards from the residue. *: point of attachment. C20 diacid = O=C(O)CCCCCCCCCCCCCCCCCCC(=O)*; γGlu = O=C(O)[C@H](CCC(=O)[*:2])N[*:1]; NMeI = CC[C@H](C)[C@H](NC)C(=O)O; Nle = CCCC[C@H](N)C(=O)O; Ac5c = NC1(C(=O)O)CCCC1; AEEA = NCCOCCOCC(=O)O; Aib = CC(C)(N)C(=O)O
Columns and labels:
[1] = molecular target: T1, hCRHR2 (Homo sapiens, UniProt Q13324); test: HTRF cAMP assay, determination of hCRHR2 potency (peptide libraries 5 conc., purified peptides 11 conc.); type: cell-based
T1 sequence (Q13324 1-411): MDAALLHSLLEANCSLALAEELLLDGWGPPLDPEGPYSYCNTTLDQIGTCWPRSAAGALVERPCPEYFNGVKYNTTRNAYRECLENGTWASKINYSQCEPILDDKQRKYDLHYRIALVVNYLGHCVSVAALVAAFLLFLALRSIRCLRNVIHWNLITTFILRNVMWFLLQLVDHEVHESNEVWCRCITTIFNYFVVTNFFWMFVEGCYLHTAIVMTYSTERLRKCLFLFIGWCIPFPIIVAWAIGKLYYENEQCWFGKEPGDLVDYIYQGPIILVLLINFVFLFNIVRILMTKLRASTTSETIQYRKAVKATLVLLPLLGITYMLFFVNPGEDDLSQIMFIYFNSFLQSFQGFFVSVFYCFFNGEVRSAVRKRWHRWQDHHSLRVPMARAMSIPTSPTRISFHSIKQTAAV
In short: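 CHO-K1 cells stably expressing human CRHR2, thawed from frozen stocks just before use and run in suspension; cAMP measured by competitive HTRF immunoassay (cryptate anti-cAMP, d2-cAMP). Agonist peptides tested at 5 (libraries) or 11 (purified) concentrations; EC50 from sigmoid variable-slope nonlinear regression.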

[2] = molecular target: T2, hCRHR1 (Homo sapiens, UniProt P34998); test: HTRF cAMP assay, determination of hCRHR1 potency (peptide libraries 5 conc., purified peptides 11 conc.); type: cell-based
T2 sequence (P34998 24-415): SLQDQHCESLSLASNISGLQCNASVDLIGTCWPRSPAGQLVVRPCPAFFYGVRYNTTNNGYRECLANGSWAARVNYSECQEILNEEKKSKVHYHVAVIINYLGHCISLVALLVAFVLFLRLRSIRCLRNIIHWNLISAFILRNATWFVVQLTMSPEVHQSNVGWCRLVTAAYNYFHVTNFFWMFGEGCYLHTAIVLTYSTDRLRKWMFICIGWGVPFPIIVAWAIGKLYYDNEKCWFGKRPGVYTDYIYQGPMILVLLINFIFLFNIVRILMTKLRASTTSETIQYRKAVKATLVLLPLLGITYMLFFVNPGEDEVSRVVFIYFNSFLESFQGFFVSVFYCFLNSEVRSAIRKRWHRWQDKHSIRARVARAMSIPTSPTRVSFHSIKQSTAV
In short: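 CHO-K1 cells stably expressing human CRHR1, thawed from frozen stocks just before use, were stimulated in suspension with agonist peptides. cAMP was measured by HTRF competitive immunoassay (cryptate anti-cAMP antibody vs d2-cAMP).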

[3] = library peptides, matched molecular pairs L vs Nle in position X^38, read-out: Potency hCRHR2 pEC50 (converted)
[4] = library peptides, matched molecular pairs L vs Nle in position X^38, read-out: Potency hCRHR1 pEC50 (converted)

SMILES | EC50 [1, 3] | EC50 [2, 4] | further results
CCCC[C@H](NC(=O)[C@@H](NC(=O)[C@H](CCC(=O)O)NC(=O)[C@H](C)NC(=O)[C@H](CC(N)=O)NC(=O)C(C)(C)NC(=O)[C@H](CCCCNC(=O)COCCOCCNC(=O)COCCOCCNC(=O)CC[C@H](NC(=O)CC[C@H](NC(=O)CCCCCCCCCCCCCCCCCCC(=O)O)C(=O)O)C(=O)O)NC(=O)[C@H](C)NC(=O)[C@H](CCC(N)=O)NC(=O)[C@H](CCC(=O)O)NC(=O)[C@H](CCCNC(=N)N)NC(=O)[C@H](C)NC(=O)[C@H](C)NC(=O)[C@H](CCCNC(=N)N)NC(=O)[C@H](C)NC(=O)[C@H](CCCNC(=N)N)NC(=O)[C@H](C)NC(=O)[C@H](CCC(N)=O)NC(=O)[C@H](CCC(=O)O)NC(=O)[C@H](CC(C)C)NC(=O)[C@H](CC(C)C)NC(=O)[C@@H](NC(=O)[C@H](CCC(N)=O)NC(=O)[C@H](CC(C)C)NC(=O)[C@H](CC(C)C)NC(=O)CNC(=O)[C@@H](NC(=O)[C@@H]1CCCN1C(=O)[C@@H](NC(=O)[C@H](CC(=O)O)NC(=O)[C@H](CC(C)C)NC(=O)[C@H](CO)NC(=O)[C@H](CC(C)C)NC(=O)[C@@H](NC(=O)[C@@H](NC)[C@@H](C)CC)C(C)C)C(C)C)[C@@H](C)CC)[C@@H](C)CC)[C@@H](C)CC)C(=O)N[C@@H](C)C(=O)N[C@@H](CCC(=O)O)C(=O)N[C@H](C(N)=O)C(C)C [compound 124] (H-[NMeI]VLSLDVPIGLLQILLEQARARAAREQAK([AEEA-AEEA-γGlu-γGlu-C20 diacid])[Aib]NAEI[Nle]AEV-NH2) | – | – | EC50 ([1]; Table 4, library peptides having X^38 = Nle, read-out: hCRHR2 pEC50 (converted)): 0.00631 nM; Selectivity hCRHR1 EC50/hCRHR2 EC50 ([1]; Table 4, ratio, or comparison with Ref. 1 (SEQ ID NO: 205) / Ref. 2 (SEQ ID NO: 124)): 40378; EC50 ([2]; Table 4, library peptides having X^38 = Nle, read-out: hCRHR1 pEC50 (converted)): 251 nM
CCCC[C@H](NC(=O)[C@@H](NC(=O)[C@H](CCC(=O)O)NC(=O)[C@H](C)NC(=O)[C@H](CC(N)=O)NC(=O)[C@@H](NC(=O)[C@H](CCCCNC(=O)COCCOCCNC(=O)COCCOCCNC(=O)CC[C@H](NC(=O)CC[C@H](NC(=O)CCCCCCCCCCCCCCCCCCC(=O)O)C(=O)O)C(=O)O)NC(=O)[C@H](C)NC(=O)[C@H](CCC(N)=O)NC(=O)[C@H](CCC(=O)O)NC(=O)[C@H](CCCNC(=N)N)NC(=O)[C@H](C)NC(=O)[C@H](CO)NC(=O)[C@H](CCCNC(=N)N)NC(=O)[C@H](C)NC(=O)[C@H](CCCNC(=N)N)NC(=O)[C@H](C)NC(=O)[C@H](CCC(N)=O)NC(=O)[C@H](CCC(=O)O)NC(=O)[C@H](CC(C)C)NC(=O)[C@H](CC(C)C)NC(=O)[C@@H](NC(=O)[C@H](CCC(N)=O)NC(=O)[C@H](CC(C)C)NC(=O)[C@H](CC(C)C)NC(=O)CNC(=O)[C@@H](NC(=O)[C@@H]1CCCN1C(=O)[C@@H](NC(=O)[C@H](CC(=O)O)NC(=O)[C@H](CC(C)C)NC(=O)[C@H](CO)NC(=O)[C@H](CC(C)C)NC(=O)[C@@H](NC(=O)[C@@H](N)[C@@H](C)CC)C(C)C)C(C)C)[C@@H](C)CC)[C@@H](C)CC)[C@@H](C)O)[C@@H](C)CC)C(=O)N[C@@H](C)C(=O)N[C@@H](CCC(=O)O)C(=O)N[C@H](C(N)=O)C(C)C [compound 61] (H-IVLSLDVPIGLLQILLEQARARSAREQAK([AEEA-AEEA-γGlu-γGlu-C20 diacid])TNAEI[Nle]AEV-NH2) | 0.1 nM | 1260 nM | –
CCCC[C@H](NC(=O)[C@@H](NC(=O)[C@H](CCC(=O)O)NC(=O)[C@H](C)NC(=O)[C@H](CC(N)=O)NC(=O)[C@@H](NC(=O)[C@H](CCCCNC(=O)COCCOCCNC(=O)COCCOCCNC(=O)CC[C@H](NC(=O)CC[C@H](NC(=O)CCCCCCCCCCCCCCCCCCC(=O)O)C(=O)O)C(=O)O)NC(=O)[C@H](C)NC(=O)[C@H](CCC(N)=O)NC(=O)[C@H](CCC(=O)O)NC(=O)[C@H](CCCNC(=N)N)NC(=O)[C@H](CC(C)C)NC(=O)[C@H](C)NC(=O)[C@H](CCCNC(=N)N)NC(=O)[C@H](C)NC(=O)[C@H](CCCNC(=N)N)NC(=O)[C@H](C)NC(=O)[C@H](CCC(N)=O)NC(=O)[C@H](CCC(=O)O)NC(=O)[C@H](CC(C)C)NC(=O)[C@H](CC(C)C)NC(=O)[C@@H](NC(=O)[C@H](CCC(N)=O)NC(=O)[C@H](CC(C)C)NC(=O)[C@H](CC(C)C)NC(=O)CNC(=O)[C@@H](NC(=O)[C@@H]1CCCN1C(=O)[C@@H](NC(=O)[C@H](CC(=O)O)NC(=O)[C@H](CC(C)C)NC(=O)[C@H](CO)NC(=O)[C@H](CC(C)C)NC(=O)[C@@H](NC(=O)[C@@H](N)[C@@H](C)CC)C(C)C)C(C)C)[C@@H](C)CC)[C@@H](C)CC)[C@@H](C)O)[C@@H](C)CC)C(=O)N[C@@H](C)C(=O)N[C@@H](CCC(=O)O)C(=O)N[C@H](C(N)=O)C(C)C [SEQ ID NO: 40] (H-IVLSLDVPIGLLQILLEQARARALREQAK([AEEA-AEEA-γGlu-γGlu-C20 diacid])TNAEI[Nle]AEV-NH2) | – | – | EC50 ([1]; Table 3, matched molecular pairs X^38 L vs Nle, peptide library of Example 4, read-out: hCRHR2 pEC50 (converted)): 0.398 nM; EC50 ([2]; Table 3, matched molecular pairs X^38 L vs Nle, peptide library of Example 4, read-out: hCRHR1 pEC50 (converted)): 25.1 nM
CCCC[C@H](NC(=O)[C@@H](NC(=O)[C@H](CCC(=O)O)NC(=O)[C@H](C)NC(=O)[C@H](CC(N)=O)NC(=O)[C@@H](NC(=O)[C@H](CCCCNC(=O)COCCOCCNC(=O)COCCOCCNC(=O)CC[C@H](NC(=O)CC[C@H](NC(=O)CCCCCCCCCCCCCCCCCCC(=O)O)C(=O)O)C(=O)O)NC(=O)[C@H](C)NC(=O)[C@H](CCC(N)=O)NC(=O)[C@H](CCC(=O)O)NC(=O)[C@H](CCCNC(=N)N)NC(=O)[C@H](C)NC(=O)[C@H](CCC(N)=O)NC(=O)[C@H](CCCNC(=N)N)NC(=O)[C@H](C)NC(=O)[C@H](CCCNC(=N)N)NC(=O)[C@H](C)NC(=O)[C@H](CCC(N)=O)NC(=O)[C@H](CCC(=O)O)NC(=O)[C@H](CC(C)C)NC(=O)[C@H](CC(C)C)NC(=O)[C@@H](NC(=O)[C@H](CCC(N)=O)NC(=O)[C@H](CC(C)C)NC(=O)[C@H](CC(C)C)NC(=O)CNC(=O)[C@@H](NC(=O)[C@@H]1CCCN1C(=O)C1(NC(=O)[C@H](CC(=O)O)NC(=O)[C@H](CC(C)C)NC(=O)[C@H](CO)NC(=O)[C@H](CC(C)C)NC(=O)[C@@H](NC(=O)[C@@H](N)[C@@H](C)CC)C(C)C)CCCC1)[C@@H](C)CC)[C@@H](C)CC)[C@@H](C)O)[C@@H](C)CC)C(=O)N[C@@H](C)C(=O)N[C@@H](CCC(=O)O)C(=O)N[C@H](C(N)=O)C(C)C [compound 79] (H-IVLSLD[Ac5c]PIGLLQILLEQARARQAREQAK([AEEA-AEEA-γGlu-γGlu-C20 diacid])TNAEI[Nle]AEV-NH2) | 0.251 nM | 2 nM | –
CCCC[C@H](NC(=O)[C@@H](NC(=O)[C@H](CCC(=O)O)NC(=O)[C@H](C)NC(=O)[C@H](CC(N)=O)NC(=O)[C@@H](NC(=O)[C@H](CCCCNC(=O)COCCOCCNC(=O)COCCOCCNC(=O)CC[C@H](NC(=O)CC[C@H](NC(=O)CCCCCCCCCCCCCCCCCCC(=O)O)C(=O)O)C(=O)O)NC(=O)[C@H](C)NC(=O)[C@H](CCC(N)=O)NC(=O)[C@H](CCC(=O)O)NC(=O)[C@H](CCCNC(=N)N)NC(=O)[C@H](C)NC(=O)[C@H](C)NC(=O)[C@H](CCC(N)=O)NC(=O)[C@H](C)NC(=O)[C@H](CCCNC(=N)N)NC(=O)[C@H](C)NC(=O)[C@H](CCC(N)=O)NC(=O)[C@H](CCC(=O)O)NC(=O)[C@H](CC(C)C)NC(=O)[C@H](CC(C)C)NC(=O)[C@@H](NC(=O)[C@H](CCC(N)=O)NC(=O)[C@H](CC(C)C)NC(=O)[C@H](CC(C)C)NC(=O)CNC(=O)[C@@H](NC(=O)[C@@H]1CCCN1C(=O)[C@@H](NC(=O)[C@H](CC(=O)O)NC(=O)[C@H](CC(C)C)NC(=O)[C@H](CO)NC(=O)[C@H](CC(C)C)NC(=O)[C@@H](NC(=O)[C@@H](N)[C@@H](C)CC)C(C)C)C(C)C)[C@@H](C)CC)[C@@H](C)CC)[C@@H](C)O)[C@@H](C)CC)C(=O)N[C@@H](C)C(=O)N[C@@H](CCC(=O)O)C(=O)N[C@H](C(N)=O)C(C)C [compound 63] (H-IVLSLDVPIGLLQILLEQARAQAAREQAK([AEEA-AEEA-γGlu-γGlu-C20 diacid])TNAEI[Nle]AEV-NH2) | 0.251 nM | 501 nM | –

From patent EP4810052A2, “HCRHR2 SELECTIVE POLYPEPTIDES” (Gubra A/S, priority 2023, dated 2026)
